The compounds below were run against T1, IDO1 (Homo sapiens, UniProt P14902) (assay: HeLa Cell-Based IDO1 Kyn (Kynurenine) Production Assay). Details: HeLa cells, IDO1 induced by IFN-γ, 0.4 mM L-Trp, 48 hours incubation, Kyn absorbance at 480 nm; read-out: Cell-Based EC50 (nM) Hela IDO1.
T1 construct: endogenous in cells; host or cells: HeLa cells (American Type Culture Collection), induced with human recombinant IFN-γ
T1 sequence (P14902 whole entry): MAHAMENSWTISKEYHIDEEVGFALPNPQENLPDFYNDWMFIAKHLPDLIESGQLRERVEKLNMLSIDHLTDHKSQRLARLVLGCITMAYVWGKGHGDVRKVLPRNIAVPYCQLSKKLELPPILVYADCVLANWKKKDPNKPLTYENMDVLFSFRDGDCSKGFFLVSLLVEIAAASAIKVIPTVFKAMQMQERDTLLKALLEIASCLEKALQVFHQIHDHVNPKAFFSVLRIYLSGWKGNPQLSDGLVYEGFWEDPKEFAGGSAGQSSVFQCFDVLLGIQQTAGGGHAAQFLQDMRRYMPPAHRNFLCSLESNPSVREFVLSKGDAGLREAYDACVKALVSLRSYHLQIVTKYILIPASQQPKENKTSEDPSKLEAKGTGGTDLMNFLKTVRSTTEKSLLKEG
Procedure: HeLa Cell-Based IDO1 Kyn (Kynurenine) Production Assay:
The inhibitory activity of IDO1 inhibitors is determined by using a colorimetric reaction to measure Kyn generated from L-Trp (L-Tryptophon) oxidation by cellular IDO1 in HeLa cells after induction of IDO1 expression by IFN-γ. Hela cells were obtained from the American Type Culture Collection and recovered in 10% FBS-containing phenol red-free DMEM medium. Cells were plated onto a 96-well plate (100 μl/well) at 8000 cells per well and kept at 37° C. in a humidified incubator supplied with 5% CO2. 4 hours later, Human recombinant IFN-γ (8901SC, CST) was added to cells (final concentration 100 ng/mL) to stimulate endogenous IDO1. Compounds at different concentrations diluted in dimethylsulfoxide (DMSO) were added simultaneously with IFN-γ and 0.4 mM L-Trp. Cells were kept at 37° C. in a humidified incubator supplied with 5% CO2. After 48 hours of incubation, 100 μl supernatant from each well was removed to a new plate. The protein in the medium was precipitated with the addition of 8 μl 6N trichloroacetic acid. The plate was incubated at 60° C. for 30 minutes and then centrifugation at 2500 rpm for 10 minutes to remove sediments. 80 μl supernatants were carefully removed to a new clean plate and added with an equal volume of 2% 4-(Dimethylamino)benzaldehyde (D2004, Sigma) dissolved in glacial acetic acid. The absorbance at 480 nm wavelength derived from Kyn was measured using a PHERAstar FS plate reader (BMG LABTECH). The IC50 for each compound was derived from fitting the dose-response data to the four-parameter logistic model by using XLfit software (IDBS).
In the case of `CC(c1nc2cnc(C(=O)NC3CC3)cc2[nH]1)[C@H]1CC[C@@H](c2ccnc3ccc(F)cc32)CC1` (mixture of isomers) [Example 22, N-cyclopropyl-2-(1-((1s,4s)-4-(6-fluoroquinolin-4-yl)cyclohexyl)ethyl)-1H-imidazo[4,5-c]pyridine-6-carboxamide], the EC50 is reported as 3.12 nM.
`CNC(=O)c1cc2[nH]c(C(C)[C@H]3CC[C@@H](c4ccnc5ccc(F)cc54)CC3)nc2cn1` (mixture of isomers) [Example 23, 2-(1-((1s,4s)-4-(6-fluoroquinolin-4-yl)cyclohexyl)ethyl)-N-methyl-1H-imidazo[4,5-c]pyridine-6-carboxamide] gave an EC50 of 7.12 nM.
For `CNC(=O)c1ccc2[nH]c(C(C)[C@H]3CC[C@@H](c4ccnc5ccc(F)cc54)CC3)nc2c1` (stereo partly drawn) [Example 1, 2-(1-((1s,4s)-4-(6-fluoroquinolin-4-yl)cyclohexyl)ethyl)-N-methyl-1H-benzo[d]imidazole-5-carboxamide], the EC50 was 64.1 nM.
Work on `CC(C)NC(=O)c1ccc2nc([C@H](C)[C@H]3CC[C@@H](c4ccnc5ccc(F)cc54)CC3)[nH]c2c1` [Example 2, 2-((R)-1-((1s,4S)-4-(6-fluoroquinolin-4-yl)cyclohexyl)ethyl)-N-isopropyl-1H-benzo[d]imidazole-6-carboxamide] yielded an EC50 of 50.6 nM.
`C[C@@H](c1nc2ccc(C(=O)NC(C)(C)C)cc2[nH]1)[C@H]1CC[C@@H](c2ccnc3ccc(F)cc32)CC1` [Example 3, N-(tert-butyl)-2-((R)-1-((1s,4S)-4-(6-fluoroquinolin-4-yl)cyclohexyl)ethyl)-1H-benzo[d]imidazole-6-carboxamide] showed an EC50 of 74.5 nM.
Work on `C[C@@H](c1nc2ccc(C(=O)NC3CCCC3)cc2[nH]1)[C@H]1CC[C@@H](c2ccnc3ccc(F)cc32)CC1` [Example 5, N-cyclopentyl-2-((R)-1-((1s,4S)-4-(6-fluoroquinolin-4-yl)cyclohexyl)ethyl)-1H-benzo[d]imidazole-6-carboxamide] yielded an EC50 of 38.8 nM.
For `C[C@@H](c1nc2ccc(C(=O)NC3CCCCC3)cc2[nH]1)[C@H]1CC[C@@H](c2ccnc3ccc(F)cc32)CC1` [Example 6, N-cyclohexyl-2-((R)-1-((1s,4S)-4-(6-fluoroquinolin-4-yl)cyclohexyl)ethyl)-1H-benzo[d]imidazole-6-carboxamide], the EC50 was 40.2 nM.
`CONC(=O)c1ccc2nc(C(C)[C@H]3CC[C@@H](c4ccnc5ccc(F)cc54)CC3)[nH]c2c1` (stereo partly drawn) [Example 7, 2-(1-((1s,4s)-4-(6-fluoroquinolin-4-yl)cyclohexyl)ethyl)-N-methoxy-1H-benzo[d]imidazole-6-carboxamide] showed an EC50 of 470 nM.
`CC(c1nc2cc(C(=O)N(C)C)ccc2[nH]1)[C@H]1CC[C@@H](c2ccnc3ccc(F)cc32)CC1` (stereo partly drawn) [Example 8, 2-(1-((1s,4s)-4-(6-fluoroquinolin-4-yl)cyclohexyl)ethyl)-N,N-dimethyl-1H-benzo[d]imidazole-5-carboxamide] was tested, and the EC50 was 46.1 nM.
For `C[C@@H](c1nc2ccc(C(=O)NC3CC3)cc2[nH]1)[C@H]1CC[C@@H](c2ccnc3ccc(F)cc32)CC1` [Example 9, N-cyclopropyl-2-((R)-1-((1s,4S)-4-(6-fluoroquinolin-4-yl)cyclohexyl)ethyl)-1H-benzo[d]imidazole-6-carboxamide], the EC50 was 12.6 nM.
With `Cc1cc(C(=O)NC2CCC2)cc2nc(C(C)[C@H]3CC[C@@H](c4ccnc5ccc(F)cc54)CC3)[nH]c12` (stereo partly drawn) [Example 10, N-cyclobutyl-2-(1-((1s,4s)-4-(6-fluoroquinolin-4-yl)cyclohexyl)ethyl)-7-methyl-1H-benzo[d]imidazole-5-carboxamide] the EC50 was 27.1 nM.
For `Cc1cc(C(=O)NC2CCC2)cc2nc([C@@H](C)[C@H]3CC[C@@H](c4ccnc5ccc(F)cc54)CC3)[nH]c12` [Example 10a, N-cyclobutyl-2-((R)-1-((1s,4S)-4-(6-fluoroquinolin-4-yl)cyclohexyl)ethyl)-7-methyl-1H-benzo[d]imidazole-5-carboxamide], the EC50 was 788 nM.
